Results published in PubChem BioAssay (NCI).
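Where inhibition never reached the appropriate level, the endpoint shown equals the highest concentration tested. Otherwise, values were interpolated linearly from a five-concentration, 48-hour dose response in 96-well plates. At the GI50, growth is halved. TGI is the concentration that stops growth completely.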

How the values were obtained:
Test in all cases: NCI tumour cell line growth inhibition, 48 h
[1] = tested on: OVCAR-4 ovarian
[2] = tested on: T-47D breast
[3] = tested on: SR leukemia
[4] = tested on: RPMI-8226 leukemia
[5] = tested on: SK-MEL-5 melanoma
[6] = tested on: DU-145 prostate
[7] = tested on: SW-620 colon
[8] = tested on: M14 melanoma
[9] = tested on: NCI-H23 lung
[10] = tested on: HOP-62 NSCLC

`Cc1cc(S(=O)(=O)N=C2Nc3cccc4cccc(c34)N2)c(S)cc1Cl` gave a TGI [1] of over 100 µM, a TGI [2] of over 100 µM and a TGI [3] of over 100 µM. For the same molecule, the TGI [4] was over 100 µM, the TGI [5] was over 100 µM and the TGI [6] was over 100 µM. For the same molecule, the TGI [7] was over 100 µM and the TGI [8] was over 100 µM.

Molecule `COC1(CC[C@H](C)COC2OC(CO)C(O)C(O)C2O)O[C@H]2C[C@H]3[C@@H]4CC=C5C[C@@H](OC6OC(CO)C(OC7OC(C)C(O)C(O)C7O)C(O)C6OC6OC(C)C(O)C(O)C6O)CC[C@]5(C)[C@H]4CC[C@]3(C)[C@H]2[C@@H]1C` (stereo partly drawn) has a TGI [1] of 18 µM, a TGI [2] of 9.83 µM and a TGI [3] of over 100 µM. It also gave a TGI [4] of 5.93 µM, a TGI [5] of over 28.6 µM and a TGI [9] of 19.2 µM. The TGI [6] was 5.77 µM, the TGI [10] was 4.09 µM and the TGI [7] was 6.78 µM.

Work on `CSc1nc(Cl)c2c(n1)Sc1nc3ccccc3n1C2O` (stereo not drawn) yielded a TGI [1] of over 100 µM, a TGI [2] of over 100 µM and a TGI [4] of 19.5 µM. The TGI [5] was over 100 µM, the TGI [9] was over 100 µM and the TGI [6] was 41.9 µM. For the same molecule, the TGI [10] was over 79 µM, the TGI [7] was 25.7 µM and the TGI [8] was over 100 µM.

Work on `O=[N+]([O-])c1ccc(-c2csc(=[N+]3CCCCC3)s2)cc1` yielded a TGI [1] of 81.4 µM, a TGI [3] of over 83.3 µM and a TGI [4] of over 100 µM. The TGI [5] was 17.8 µM, the TGI [9] was 22.8 µM and the TGI [10] was 11.6 µM. It also gave a TGI [7] of over 100 µM and a TGI [8] of over 100 µM.

For `CCCCNC(=O)Cn1c2ccc(Br)cc2c2nc3ccccc3nc21`, the TGI [2] was over 100 µM, the TGI [3] was over 100 µM and the TGI [4] was over 100 µM. The TGI [5] was over 100 µM, the TGI [9] was over 100 µM and the TGI [6] was over 100 µM. The TGI [10] was over 100 µM, the TGI [7] was over 100 µM and the TGI [8] was over 100 µM.

`CC1=C(C)SC(=C2Sc3c(n(C)c(=O)n(C)c3=O)S2)S1` gave a TGI [1] of 58.3 µM, a TGI [2] of over 100 µM and a TGI [4] of over 100 µM. For the same molecule, the TGI [5] was over 100 µM, the TGI [9] was over 100 µM and the TGI [6] was over 100 µM. For the same molecule, the TGI [10] was 41.3 µM, the TGI [7] was over 100 µM and the TGI [8] was over 100 µM.

In the case of `C=CN(C=C)C(=O)Cn1cc(-c2ccccc2)nn1`, the TGI [1] is reported as over 100 µM, the TGI [3] is reported as over 100 µM and the TGI [4] is reported as over 100 µM. For the same molecule, the TGI [5] was over 100 µM, the TGI [9] was over 100 µM and the TGI [6] was over 100 µM. For the same molecule, the TGI [10] was over 100 µM, the TGI [7] was over 100 µM and the TGI [8] was over 100 µM.

`COc1cc2c(c(OC)c1)[C@H](C)N(Cc1ccccc1)C(C)C2` (stereo partly drawn) showed a TGI [2] of over 100 µM, a TGI [3] of over 100 µM and a TGI [4] of over 100 µM. It also gave a TGI [5] of 90.3 µM, a TGI [9] of over 100 µM and a TGI [6] of over 100 µM. The TGI [10] was over 100 µM, the TGI [7] was over 100 µM and the TGI [8] was over 100 µM.

Work on `Nc1c(N2CCOCC2)c(=O)nc2[nH]/c(=C\c3ccccc3O)c(=O)n12` yielded a TGI [1] of over 100 µM, a TGI [2] of over 100 µM and a TGI [3] of over 100 µM. The TGI [4] was 77.3 µM, the TGI [5] was over 100 µM and the TGI [9] was over 100 µM. For the same molecule, the TGI [6] was over 100 µM, the TGI [7] was over 100 µM and the TGI [8] was over 100 µM.

`CO[P@@]1(=O)O[C@@H](c2ccccc2)[C@H](O)[C@]1(O)c1ccccc1` showed a TGI [1] of over 100 µM, a TGI [2] of over 100 µM and a TGI [3] of over 100 µM. For the same molecule, the TGI [4] was over 100 µM, the TGI [5] was over 100 µM and the TGI [9] was over 100 µM. For the same molecule, the TGI [6] was over 100 µM, the TGI [7] was over 100 µM and the TGI [8] was over 100 µM.

In the case of `CCOC(=O)N1CCN(c2c(N)nc(C)[nH]c2=O)CC1`, the TGI [1] is reported as over 100 µM, the TGI [2] is reported as over 100 µM and the TGI [3] is reported as over 100 µM. It also gave a TGI [4] of over 100 µM, a TGI [9] of over 100 µM and a TGI [6] of over 100 µM. For the same molecule, the TGI [10] was over 100 µM, the TGI [7] was over 100 µM and the TGI [8] was over 100 µM.

Molecule `CNC(=S)N1CCN(C(C)=O)C1=S` has a TGI [1] of 32.1 µM, a TGI [2] of 90.7 µM and a TGI [3] of over 100 µM. It also gave a TGI [5] of over 100 µM, a TGI [9] of over 100 µM and a TGI [6] of over 100 µM. The TGI [10] was over 100 µM, the TGI [7] was over 100 µM and the TGI [8] was over 100 µM.

For `CC[C@]12C=CCN3CCC4(c5cc([C@@]6(C(=O)OC)CC7CN(CCc8c6[nH]c6ccccc86)CC6CCCCC67)c(OC)cc5N(C)C4[C@](O)(C(=O)OC)C1OC(C)=O)[C@@H]32` (stereo partly drawn), the TGI [1] was 18.3 µM, the TGI [3] was over 33.8 µM and the TGI [4] was 61.3 µM. It also gave a TGI [5] of 1.53 µM, a TGI [9] of under 0.01 µM and a TGI [6] of 14.2 µM. It also gave a TGI [10] of 6.07 µM, a TGI [7] of 15.6 µM and a TGI [8] of 1.35 µM.

In the case of `Cc1nc2c(=O)n(-c3ccccc3)c(=O)n(-c3ccccc3)c2o1`, the TGI [1] is reported as over 100 µM, the TGI [2] is reported as over 100 µM and the TGI [3] is reported as over 100 µM. It also gave a TGI [4] of over 100 µM, a TGI [5] of over 100 µM and a TGI [9] of over 100 µM. The TGI [10] was over 100 µM, the TGI [7] was over 100 µM and the TGI [8] was over 100 µM.

Work on `O=c1c2ccc(Cl)cc2oc2c(CNc3ccc(S(=O)(=O)Nc4ncccn4)cc3)cccc12` yielded a TGI [1] of over 100 µM, a TGI [2] of over 100 µM and a TGI [3] of over 100 µM. The TGI [4] was over 100 µM, the TGI [5] was over 100 µM and the TGI [9] was over 100 µM. It also gave a TGI [10] of over 100 µM, a TGI [7] of over 100 µM and a TGI [8] of over 100 µM.

Molecule `CCN(CC)C(=S)N/N=C(/c1ccccc1)c1ccccn1` has a TGI [1] of 23.8 µM, a TGI [3] of 0.953 µM and a TGI [4] of 45.1 µM. It also gave a TGI [5] of 4.83 µM, a TGI [9] of over 43.3 µM and a TGI [6] of over 65.9 µM. It also gave a TGI [10] of 13.6 µM, a TGI [7] of over 49.4 µM and a TGI [8] of 0.794 µM.

For `CN(C)CCNCCCNc1c2ccccc2nc2cccc([N+](=O)[O-])c12`, the TGI [1] was 0.0208 µM, the TGI [2] was 0.0899 µM and the TGI [4] was under 0.0226 µM. For the same molecule, the TGI [5] was 0.0507 µM, the TGI [9] was under 0.0186 µM and the TGI [6] was 0.0525 µM. For the same molecule, the TGI [10] was 0.154 µM, the TGI [7] was 1.34 µM and the TGI [8] was 0.0654 µM.

Work on `CN(C)/N=N/c1nc2c(c(=O)n(C)c(=O)n2C)n1CC1CO1` (stereo not drawn) yielded a TGI [1] of 29.4 µM, a TGI [2] of 80 µM and a TGI [4] of 93.1 µM. It also gave a TGI [5] of 25.5 µM, a TGI [9] of 25.1 µM and a TGI [6] of 37.5 µM. For the same molecule, the TGI [10] was 34.4 µM, the TGI [7] was 36.8 µM and the TGI [8] was 32.6 µM.

Work on `N#Cc1c(-c2ccc([N+](=O)[O-])cc2)c(C#N)c(=O)n(NS(=O)(=O)c2ccccc2)c1O` yielded a TGI [1] of over 100 µM, a TGI [4] of over 100 µM and a TGI [5] of over 100 µM. The TGI [10] was over 100 µM, the TGI [7] was over 100 µM and the TGI [8] was over 100 µM.

Work on `CC/C=N\N1C(N)=C(C#N)C(C#N)(C#N)C1CC` (stereo not drawn) yielded a TGI [1] of over 100 µM, a TGI [2] of over 100 µM and a TGI [4] of over 100 µM. It also gave a TGI [5] of over 100 µM, a TGI [9] of over 100 µM and a TGI [6] of over 100 µM. The TGI [10] was over 100 µM, the TGI [7] was over 100 µM and the TGI [8] was over 100 µM.

For `O=C1c2cc3c(cc2-c2c1c1ccc(Cl)cc1c(=O)n2CCCn1ccnc1)OCO3`, the GI50 [1] was 0.0525 µM, the TGI [1] was over 100 µM and the GI50 [2] was under 0.01 µM. For the same molecule, the TGI [2] was over 100 µM, the GI50 [3] was under 0.01 µM and the TGI [3] was 0.0677 µM. The GI50 [4] was 0.0215 µM, the TGI [4] was 0.546 µM and the GI50 [9] was under 0.01 µM. It also gave a TGI [9] of 0.317 µM, a GI50 [6] of under 0.01 µM and a TGI [6] of 0.282 µM. The GI50 [10] was under 0.01 µM, the TGI [10] was over 100 µM and the GI50 [7] was under 0.01 µM. The TGI [7] was over 100 µM, the GI50 [8] was under 0.01 µM and the TGI [8] was 11.9 µM.
